Results on eleven compounds are retold here after US9902703B2, “Somatostatin modulators and uses thereof” (Crinetics Pharmaceuticals, Inc., priority 2015, dated 2018).

pEC50: −log10 of the molar value.

The target in the experiment is T1, human somatostatin receptor subtype 2 (Homo sapiens, UniProt P30874).
T1 construct: expressed in transfected cells; host or cells: CHO (Chinese hamster ovary) cells, G-418 selected
T1 sequence (P30874 whole entry): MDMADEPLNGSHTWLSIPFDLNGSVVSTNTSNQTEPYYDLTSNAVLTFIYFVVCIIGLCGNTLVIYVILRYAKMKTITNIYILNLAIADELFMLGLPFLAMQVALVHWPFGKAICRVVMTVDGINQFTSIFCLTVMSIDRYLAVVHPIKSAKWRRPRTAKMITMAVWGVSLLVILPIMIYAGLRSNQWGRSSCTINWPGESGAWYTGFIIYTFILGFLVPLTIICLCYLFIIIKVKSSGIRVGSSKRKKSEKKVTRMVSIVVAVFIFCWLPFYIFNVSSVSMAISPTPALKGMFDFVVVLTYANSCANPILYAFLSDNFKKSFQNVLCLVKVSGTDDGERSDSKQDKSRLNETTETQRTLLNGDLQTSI
In words: cAMP assay (functional assay for SSTR2 agonists). Type of experiment: cell-based. The settings on record: CHO cells expressing human SSTR2; intracellular cAMP with forskolin, HTRF; read-out: SSTR2a EC50. An excerpt:
Functional Assay for SSTR2 Agonists
General overview: All five SSTR subtypes are Gi coupled G-protein coupled receptors (GPCRs) that lead to decreases in intracellular cyclic AMP (cAMP) when activated by an agonist. Therefore, measurement of intracellular cAMP levels can be used to assess whether compounds of the invention are agonists of SSTR subtypes (John Kelly, Troy Stevens, W. Joseph Thompson, and Roland Seifert, Current Protocols in Pharmacology, 2005, 2.2.1-2.2). One example of an intracellular cAMP assay is described below.
One day prior to the assay, 40,000 Chinese hamster ovary (CHO) cells expressing the human somatostatin receptor subtype 2 are plated in each well of a 96-well tissue culture plate in DM-MEM growth media (Gibco) with the following additives: 10% fetal bovine serum (Gibco), 100 U/mL penicillin (Gibco), 100 ug/mL streptomycin (Gibco), 10 mM HEPES (Gibco), 1.2 mM sodium hydroxide, 0.5 mg/mL G-418 (Gibco)). The cells are cultured overnight at 37° C., 5% CO2 and 95% humidity. On the day of the assay, the media is aspirated and the cells are washed with 1× Dulbecco's phosphate buffered saline (Gibco). Next, 5 μL of assay buffer (1× Earle's Balanced Salt Solution (Gibco), 5 mM MgCl2, 10 mM HEPES, 0.1% bovine serum albumin, 0.2 mM 3-Isobutyl-1-methylxanthine (IBMX, Biomol Research Labs)) and forskolin is added. Various dilutions of the compounds of the invention are prepared in assay buffer and 5 μL of the dilutions are added to the cultured cells and incubated for 15 minutes at 37° C. […] 10 μL of lysis buffer (HRTF cAMP kit, Cisbio) containing cAMP detection and visualization antibodies are added and the assay is allowed incubate for 1-24 hours at room temperature. The intracellular cAMP concentrations are then measured using a commercially available detection kit (for example, the cAMP HTRF kit, Cisbio). The measured intracellular cAMP concentrations are plotted vs. the concentration of the compounds of the invention and the EC50 of the compounds are calculated using standard methods.
(Changes in cAMP serve as a functional read-out for many G protein-coupled receptors.)
As a reminder, the pEC50 is −log10 of the EC50, conventionally taken in molar units. On to `Cc1cc(C)cc(N2C=Nc3cc(C)c(-c4cccc(O)c4)cc3C2C(=O)N(C)C[C@@H]2CCCN2)c1` (stereo partly drawn) [Compound 1-12, 3-(3,5-dimethylphenyl)-6-(3-hydroxyphenyl)-N,7-dimethyl-N-[(2S)-pyrrolidin-2-ylmethyl]-3,4-dihydroquinazoline-4-carboxamide], for which the pEC50 is greater than 7.00. Consider `Cc1cc(Cl)cc(N2C=Nc3cc(C)c(-c4cccc(CC(=O)O)c4)cc3C2C(=O)N(C)C[C@@H]2CCCN2)c1` (stereo partly drawn) [Compound 1-53, 2-{3-[3-(3-chloro-5-methylphenyl)-7-methyl-4-{methyl[(2S)-pyrrolidin-2-ylmethyl]carbamoyl}-3,4-dihydroquinazolin-6-yl]phenyl}acetic acid], for which the pEC50 is greater than 7.00. On to `Cc1cc(C)cc(N2C=Nc3ccc(-c4cccc(O)c4)cc3C2C(=O)N(C)CCN)c1` (centres unmarked) [Compound 1-2, N-(2-aminoethyl)-3-(3,5-dimethylphenyl)-6-(3-hydroxyphenyl)-N-methyl-3,4-dihydroquinazoline-4-carboxamide], for which the negative logarithm of the EC50 (pEC50) is 6.00 to 7.00. Turning to `Cc1cc(Cl)cc(N2C=Nc3cc(C)c(-c4c(C)cccc4F)cc3C2C(=O)N(C)C[C@@H]2CCCN2)c1` (stereo partly drawn) [Compound 2-12, 3-(3-chloro-5-methylphenyl)-6-(2-fluoro-6-methylphenyl)-N,7-dimethyl-N-[(2S)-pyrrolidin-2-ylmethyl]-3,4-dihydroquinazoline-4-carboxamide], the negative-log EC50 (pEC50) was greater than 7.00.

On to `Cc1cc(Cl)cc(N2C=Nc3cc(C)c(-c4cccc(O)c4)cc3C2C(=O)N(C)C[C@@H]2C[C@@H](F)CN2)c1` (stereo partly drawn) [Compound 1-56, 3-(3-chloro-5-methylphenyl)-N-{[(2S,4R)-4-fluoropyrrolidin-2-yl]methyl}-6-(3-hydroxyphenyl)-N,7-dimethyl-3,4-dihydroquinazoline-4-carboxamide], for which the pEC50 is greater than 7.00. The figure for `CCOC(=O)Cc1cccc(-c2cc3c(cc2C)N=CN(c2cc(C)cc(Cl)c2)C3C(=O)N(C)C[C@@H]2CCCN2)c1` (stereo partly drawn) [Compound 1-49, ethyl 2-{3-[3-(3-chloro-5-methylphenyl)-7-methyl-4-{methyl[(2S)-pyrrolidin-2-ylmethyl]carbamoyl}-3,4-dihydroquinazolin-6-yl]phenyl}acetate] is 6.00 to 7.00; for `COc1cc(C#N)cc(-c2cc3c(cc2C)N=CN(c2cc(C)cc(Cl)c2)C3C(=O)N(C)C[C@@H]2CCCN2)c1` (stereo partly drawn) [Compound 2-24, 3-(3-chloro-5-methylphenyl)-6-(3-cyano-5-methoxyphenyl)-N,7-dimethyl-N-[(2S)-pyrrolidin-2-ylmethyl]-3,4-dihydroquinazoline-4-carboxamide] it is greater than 7.00. Regarding `Cc1cc(Cl)cc(N2C=Nc3cc(C)c(-c4ccccc4Cl)cc3C2C(=O)N(C)C[C@@H]2CCCN2)c1` (stereo partly drawn) [Compound 1-36, 3-(3-chloro-5-methylphenyl)-6-(2-chlorophenyl)-N,7-dimethyl-N-[(2S)-pyrrolidin-2-ylmethyl]-3,4-dihydroquinazoline-4-carboxamide], the pEC50 is greater than 7.00. With `Cc1cc(Cl)cc(N2C=Nc3cc(C)c(-c4cccc(O)c4)cc3C2C(=O)N(C)C[C@@H]2CC(F)(F)CN2)c1` (stereo partly drawn) [Compound 1-55, 3-(3-chloro-5-methylphenyl)-N-{[(2S)-4,4-difluoropyrrolidin-2-yl]methyl}-6-(3-hydroxyphenyl)-N,7-dimethyl-3,4-dihydroquinazoline-4-carboxamide], the negative-log EC50 (pEC50) is greater than 7.00. In the case of `CC[C@H](N)CN(C)C(=O)C1c2cc(-c3cccc(O)c3)c(C)cc2N=CN1c1cc(C)cc(Cl)c1` (stereo partly drawn) [Compound 1-13, N-[(2S)-2-aminobutyl]-3-(3-chloro-5-methylphenyl)-6-(3-hydroxyphenyl)-N,7-dimethyl-3,4-dihydroquinazoline-4-carboxamide] it was greater than 7.00; in that of `Cc1cc(Cl)cc(N2C=Nc3cc(C)c(-c4cc(O)ccc4F)cc3C2C(=O)N(C)C[C@@H]2CCCN2)c1` (stereo partly drawn) [Compound 1-19, 3-(3-chloro-5-methylphenyl)-6-(2-fluoro-5-hydroxyphenyl)-N,7-dimethyl-N-[(2S)-pyrrolidin-2-ylmethyl]-3,4-dihydroquinazoline-4-carboxamide], greater than 7.00.
